Read-outs that look alike come from different tables or passages of the source. Square brackets hold non-standard residues; d marks the D form. Peptide text beside a SMILES is read from it.
Key:
SKBR3 cells = format: cell-based, human
Description: (§1) Cell culture. SKBR3 and BT474 cells were obtained from ATCC (Rockville, Md.). SKBR3 and BT474 were maintained in McCoy's 5a modified medium and Dulbecco's modified Eagle medium/Ham F12 (1:1) supplemented with 10% heat-inactivated FBS, 100 units/ml penicillin, […] streptomycin, and 2 mM L-glutamine. […] Cells were treated with GO-203 and CP-2 peptides (AnaSpec). […] Viability was determined by trypan blue exclusion.
(§2) Determination of IC50 and synergism. Cells were seeded on 96-well plates in 100 μl of growth medium at a density of 3000 cells per well. After 24 h, the cells were exposed to drugs in treatment medium for an additional 72 h. Cell viability was assessed using the alamar blue viability assay (Invitrogen). Triplicate wells of each treatment were analyzed and each experiment was done three times. The IC50 values were determined by nonlinear regression of the dose-response data using Prism 5.0 for Mac OSX (GraphPad Software). […] Cell viability was determined after treatment for 72 h. The combination index (CI) was calculated to determine the presence of synergism (CI<1) or antagonism (CI>1) using CalcuSyn software (Biosoft).

BT474 cells = format: cell-based, human; conditions: 72 h
Description: as §1, §2

BT474R tumor xenografts = experiment: Trastuzumab-resistant BT474R tumor xenograft model; format: in vivo, BALB/c nu/nu mice; conditions: 7.5 mg/kg GO-203 intravenously each day for 21 days
Description: FIGS. 5A-G. Targeting MUC1-C in trastuzumab-resistant cells suppresses HER3 activation and inhibits growth and clonogenic survival. (FIG. 5A) Lysates from the indicated SKBR3R (left) and BT474R (right) cells were immunoblotted (IB) with anti-p-HER3 and anti-HER3. (FIG. 5B) The indicated SKBR3R (left) and BT474R (right) cells were seeded at 4000 and 1000 cells per well, respectively, and incubated for 12 days. The colony number is expressed as the mean±s.e. of three replicates. (FIG. 5C) SKBR3R cells were treated with […] GO-203 for the indicated times. Lysates were immunoblotted with the indicated antibodies. (FIG. 5D) SKBR3R cells were left untreated (Control; CTL) or treated with […] GO-203 for the indicated times. Cell number (mean±s.e. of three determinations) was determined by Trypan blue staining. (FIG. 5E) BT474R cells were treated with […] GO-203 for the indicated times. Lysates were immunoblotted with the indicated antibodies. (FIG. 5F) BT474R cells were left untreated (Control; CTL) or treated with […] GO-203 for the indicated times. Cell number (mean±s.e. of three determinations) was determined by Trypan blue staining. […] The results are expressed as tumor volume (mean±s.e. for the eight mice in each group).
Trastuzumab-resistant BT474R tumor xenograft model. […] Tumor volumes were calculated as described (Raina et al., 2011).

BT474R cells = experiment: cells; format: cell-based, human; conditions: for IC50: Homo sapiens, 72 h
Description: as §1, §2
(§3) Assessment of drug interaction by Bliss independence. […] Using this equation, if the experimentally measured inhibition is greater than Ei, then the combination is synergistic.38 Plots were generated by Prism GraphPad software.

SKBR3R cells = experiment: cells; format: cell-based; conditions: Homo sapiens, 72 h
Description: as §1, §2, §3

Row | Structure (SMILES) | IC50 (SKBR3 cells) [nM] | IC50 (BT474 cells) [nM] | weight loss (BT474R tumor xenografts) | Fold change (BT474R cells; BT474R cells, lapatinib IC50 alone vs with GO-203) | IC50 (BT474R cells; read-out: Lapatinib (μM) IC50, BT474R cells, 72 h, lapatinib alone (Table 3)) [µM] | IC50 (BT474R cells; read-out: Lapatinib (μM) IC50, BT474R cells, 72 h, lapatinib alone (Table 4)) [µM] | IC50 (BT474R cells; read-out: Lapatinib (μM) IC50 with GO-203, BT474R cells, 72 h, with 4 μM GO-203) [µM] | IC50 (BT474R cells; read-out: Lapatinib (μM) IC50 with Trastuzumab and GO-203, BT474R cells, 72 h, with 40 nM trastuzumab+4 μM GO-203) [µM] | IC50 (BT474R cells; read-out: Lapatinib (μM) IC50 with Trastuzumab, BT474R cells, 72 h, with 40 nM trastuzumab) [µM] | IC50 (SKBR3R cells; read-out: Lapatinib (μM) IC50, SKBR3R cells, 72 h, lapatinib alone (Table 3)) [µM] | IC50 (SKBR3R cells; read-out: Lapatinib (μM) IC50, SKBR3R cells, 72 h, lapatinib alone (Table 4)) [µM] | IC50 (SKBR3R cells; read-out: Lapatinib (μM) IC50 with GO-203, SKBR3R cells, 72 h, with 4 μM GO-203) [µM] | IC50 (SKBR3R cells; read-out: Lapatinib (μM) IC50 with Trastuzumab and GO-203, SKBR3R cells, 72 h, with 40 nM trastuzumab+4 μM GO-203) [µM] | IC50 (SKBR3R cells; read-out: Lapatinib (μM) IC50 with Trastuzumab, SKBR3R cells, 72 h, with 40 nM trastuzumab) [µM]
1 | N=C(N)NCCC[C@@H](N)C(=O)N[C@H](CCCNC(=N)N)C(=O)N[C@H](CCCNC(=N)N)C(=O)N[C@H](CCCNC(=N)N)C(=O)N[C@H](CCCNC(=N)N)C(=O)N[C@H](CCCNC(=N)N)C(=O)N[C@H](CCCNC(=N)N)C(=O)N[C@H](CCCNC(=N)N)C(=O)N[C@H](CCCNC(=N)N)C(=O)N[C@H](CS)C(=O)N[C@H](CCC(N)=O)C(=O)N[C@H](CS)C(=O)N[C@H](CCCNC(=N)N)C(=O)N[C@H](CCCNC(=N)N)C(=O)N[C@H](CCCCN)C(=O)N[C@H](CC(N)=O)C(=O)O [GO-203] (H-[dR][dR][dR][dR][dR][dR][dR][dR][dR][dC][dQ][dC][dR][dR][dK][dN]-OH) | 5900 | 10200 | no weight loss |  |  |  |  |  |  |  |  |  |  | 
2 | CS(=O)(=O)CCNCc1ccc(-c2ccc3ncnc(Nc4ccc(OCc5cccc(F)c5)c(Cl)c4)c3c2)o1 [Lapatinib] |  |  |  | 2.13 | 1.43 | 1.5 | 0.67 | 0.22 | 1.2 | 1.36 | 1.7 | 0.94 | 0.93 | 1.5
